Five molecules from patent US5840684A, “Glycopeptide antibiotic derivatives” (Eli Lilly and Company, priority 1995, dated 1998) can be followed below.

Structures are written as SMILES. Converted amounts (≈) assume the structure as drawn.

Test [1] relates to Staphylococcus aureus SA1199B. The test is classed as cell-based. How it is done:
(§1) The MIC's were determined using a standard broth micro-dilution assay.

Test [2] has as its system Staphylococcus aureus S13E. It is filed as cell-based. On the procedure: as §1
Test [3] relates to Staphylococcus aureus 447. Put plainly: broth micro-dilution MIC. It is filed as cell-based. How it is done: as §1
The subject of test [4] is Entercoccus faecium 180-1. Put plainly: broth micro-dilution MIC. It is filed as cell-based. How it is done:
as §1

Test [5] has as its system Streptococcus pyogenes C203. Put plainly: broth micro-dilution MIC. It is filed as cell-based. On the procedure:
as §1
Background: Dilution methods test growth across graded concentrations, often in twofold steps.

Test [6] concerns Staphylococcus aureus SA1199. As to the kind of experiment: broth micro-dilution MIC. The test is classed as cell-based. How it is done:
as §1

For test [7], the system named is Staphylococcus aureus X400. As to the kind of experiment: broth micro-dilution MIC. It is filed as cell-based. On the procedure: as §1
Test [8] concerns Entercoccus faecium 276. As to the kind of experiment: broth micro-dilution MIC. It is filed as cell-based. How it is done:
as §1

In test [9] the test system is Staphylococcus aureus 489. As to the kind of experiment: broth micro-dilution MIC. It is filed as cell-based. On the procedure: as §1
The test system of test [10] is Staphylococcus aureus SA1199A. Put plainly: broth micro-dilution MIC. It is filed as cell-based. On the procedure: as §1
The test system of test [11] is vancomycin-resistant enterococci. As to the kind of experiment: broth micro-dilution, mean geometric MIC. The note with it: enterococci, 24-hour incubation. The test is classed as cell-based, Enterococcus faecium and Enterococcus faecalis.
The test system of test [12] is Staphylococcus haemolyticus 105. Put plainly: broth micro-dilution MIC. It is filed as cell-based. On the procedure: (§2) The formula I compounds have in vitro and in vivo activity against Gram-positive pathogenic bacteria. The MIC's were determined using a standard broth micro-dilution assay.
The subject of test [13] is Entercoccus faecium 180. Put plainly: broth micro-dilution MIC. As to conditions: Entercoccus faecium 180. The test is classed as cell-based. On the procedure:
as §2

The subject of test [14] is Staphylococcus epidermidis 270. As to the kind of experiment: broth micro-dilution MIC. The test is classed as cell-based. On the procedure:
as §2

Test [15] relates to Staphylococcus haemolyticus 415. As to the kind of experiment: broth micro-dilution MIC. It is filed as cell-based. On the procedure: as §2
Test [16] deals with Entercoccus faecium 2041. As to the kind of experiment: broth micro-dilution MIC. The test is classed as cell-based. The note with it: Entercoccus faecium 2041. On the procedure:
as §2

Test [17] concerns Streptococcus pneumoniae P1. As to the kind of experiment: broth micro-dilution MIC. The test is classed as cell-based. How it is done: as §2
The test system of test [18] is Staphylococcus aureus 446. As to the kind of experiment: broth micro-dilution MIC. The test is classed as cell-based. How it is done: as §1
Test [19] has as its system Staphylococcus aureus X778. As to the kind of experiment: broth micro-dilution MIC. It is filed as cell-based. How it is done:
as §1

For test [20], the system named is vancomycin-susceptible enterococci. As to the kind of experiment: broth micro-dilution, mean geometric MIC. It is filed as cell-based, Enterococcus faecium and Enterococcus faecalis. As to conditions: enterococci, 24-hour incubation.
The subject of test [21] is Enterococcus gallinarum 245. Put plainly: broth micro-dilution MIC. It is filed as cell-based. The note with it: Enterococcus gallinarum 245. How it is done: as §2

Regarding `CNC(CC(C)C)C(=O)NC1C(=O)NC(CC(N)=O)C(=O)NC2C(=O)NC3C(=O)NC(C(=O)NC(C(=O)O)c4cc(O)cc(O)c4-c4cc3ccc4O)C(OC3CC(C)(N)C(O)C(C)O3)c3ccc(c(Cl)c3)Oc3cc2cc(c3OC2OC(CO)C(O)C(O)C2OC2CC(C)(NCc3ccc(OC(C)=O)cc3)C(O)C(C)O2)Oc2ccc(cc2Cl)C1O` (stereo not drawn) [Compound 138], the MIC in test [1] is 0.5 µg/mL (≈ 0.287 µM); in test [2], no more than 0.06 µg/mL; in [3] it was 2 µg/mL (≈ 1.15 µM); in test [4] it was no more than 0.06 µg/mL; in test [5] it was no more than 0.06 µg/mL; in [6], no more than 0.06 µg/mL. Besides, the MIC in test [7] was no more than 0.0606 µg/mL; in [8], no more than 0.06 µg/mL; in test [9] it was no more than 0.06 µg/mL; in test [10], no more than 0.06 µg/mL; in test [12], 4 µg/mL (≈ 2.3 µM); in test [13], 4 µg/mL (≈ 2.3 µM). Besides, the MIC in test [14] was 2 µg/mL (≈ 1.15 µM); in test [15] it was 8 µg/mL (≈ 4.6 µM); in test [16], no more than 0.06 µg/mL; in test [17], no more than 0.06 µg/mL. The “mean geometric MIC, Vancomycin Resistant Strains” value in test [11] is 38 µg/mL.

On to `CNC(CC(C)C)C(=O)NC1C(=O)NC(CC(N)=O)C(=O)NC2C(=O)NC3C(=O)NC(C(=O)NC(C(=O)O)c4cc(O)cc(O)c4-c4cc3ccc4O)C(OC3CC(C)(N)C(O)C(C)O3)c3ccc(c(Cl)c3)Oc3cc2cc(c3OC2OC(CO)C(O)C(O)C2OC2CC(C)(NCc3ccc(Oc4ccc(OC)cc4)cc3)C(O)C(C)O2)Oc2ccc(cc2Cl)C1O` (stereo not drawn) [Compound 98], for which the MIC is 1 µg/mL (≈ 0.554 µM) in test [1]; 0.5 µg/mL (≈ 0.277 µM) in [2]; no more than 0.06 µg/mL in test [4]; no more than 0.06 µg/mL in [5]; 0.5 µg/mL (≈ 0.277 µM) in test [6]; no more than 0.06 µg/mL in test [7]. The MIC in [8] was 0.125 µg/mL (≈ 0.0693 µM); in [9] it was no more than 0.06 µg/mL; in test [18] it was 0.5 µg/mL (≈ 0.277 µM); in test [19], no more than 0.06 µg/mL; in test [10], no more than 0.06 µg/mL; in test [12] it was 1 µg/mL (≈ 0.554 µM). Moreover, the MIC in test [14] is no more than 0.06 µg/mL; in test [15], 1 µg/mL (≈ 0.554 µM); in test [21] it was 1 µg/mL (≈ 0.554 µM); in test [16] it was no more than 0.06 µg/mL; in test [17] it was no more than 0.06 µg/mL. Further, in test [20], the “mean geometric MIC, Vancomycin Sensitive Strains” value is 0.095 µg/mL. Besides, the “mean geometric MIC, Vancomycin Resistant Strains” value in test [11] is 2.4 µg/mL.

Turning to `C=CCCCCNC1(C)CC(OC2C(Oc3c4cc5cc3Oc3ccc(cc3Cl)C(OC3CC(C)(N)C(O)C(C)O3)C3NC(=O)C(NC(=O)C5NC(=O)C(CC(N)=O)NC(=O)C(NC(=O)C(CC(C)C)NC)C(O)c5ccc(c(Cl)c5)O4)c4ccc(O)c(c4)-c4c(O)cc(O)cc4C(C(=O)O)NC3=O)OC(CO)C(O)C2O)OC(C)C1O` (stereo not drawn) [Compound 217], the MIC in [1] was 0.125 µg/mL (≈ 0.0746 µM); in test [2], no more than 0.06 µg/mL; in test [3], 1 µg/mL (≈ 0.597 µM); in test [4], no more than 0.06 µg/mL; in test [5], no more than 0.06 µg/mL; in test [6] it was no more than 0.06 µg/mL. The MIC is no more than 0.06 µg/mL in test [7]; no more than 0.06 µg/mL in test [8]; no more than 0.06 µg/mL in [9]; no more than 0.06 µg/mL in test [19]; no more than 0.06 µg/mL in test [10]; 2 µg/mL (≈ 1.19 µM) in [12]. Further, the MIC in test [13] was 2 µg/mL (≈ 1.19 µM); in test [14], 0.5 µg/mL (≈ 0.299 µM); in test [15], 8 µg/mL (≈ 4.78 µM); in test [21], 8 µg/mL (≈ 4.78 µM); in test [16] it was no more than 0.06 µg/mL; in test [17], no more than 0.06 µg/mL. Besides, the “mean geometric MIC, Vancomycin Sensitive Strains” value in [20] stood at 0.57 µg/mL. Moreover, the “mean geometric MIC, Vancomycin Resistant Strains” value in test [11] turned out to be 13 µg/mL.

On to `CNC(CC(C)C)C(=O)NC1C(=O)NC(CC(N)=O)C(=O)NC2C(=O)NC3C(=O)NC(C(=O)NC(C(=O)O)c4cc(O)cc(O)c4-c4cc3ccc4O)C(OC3CC(C)(N)C(O)C(C)O3)c3ccc(c(Cl)c3)Oc3cc2cc(c3OC2OC(CO)C(O)C(O)C2OC2CC(C)(NCc3ccc(-c4ccccn4)cc3)C(O)C(C)O2)Oc2ccc(cc2Cl)C1O` (stereo not drawn) [Compound 137], for which the MIC in test [1] was no more than 0.06 µg/mL; in test [2], no more than 0.06 µg/mL; in test [3], 4 µg/mL (≈ 2.27 µM); in test [4] it was no more than 0.06 µg/mL; in test [5] it was no more than 0.06 µg/mL; in test [6] it was no more than 0.06 µg/mL. The MIC in test [7] is no more than 0.06 µg/mL; in [8] it was no more than 0.06 µg/mL; in [9] it was no more than 0.06 µg/mL; in test [19] it was no more than 0.06 µg/mL; in test [10], no more than 0.06 µg/mL; in test [12] it was 2 µg/mL (≈ 1.14 µM). Further, the MIC in test [13] was 0.125 µg/mL (≈ 0.071 µM); in test [14], 0.5 µg/mL (≈ 0.284 µM); in test [15] it was 8 µg/mL (≈ 4.55 µM); in [21] it was 8 µg/mL (≈ 4.55 µM); in test [16] it was no more than 0.06 µg/mL; in [17], no more than 0.06 µg/mL. Besides, the “mean geometric MIC, Vancomycin Sensitive Strains” value in test [20] amounted to 0.38 µg/mL. Further, in test [11], the “mean geometric MIC, Vancomycin Resistant Strains” value was 6.7 µg/mL.

In the case of `CNC(CC(C)C)C(=O)NC1C(=O)NC(CC(N)=O)C(=O)NC2C(=O)NC3C(=O)NC(C(=O)NC(C(=O)O)c4cc(O)cc(O)c4-c4cc3ccc4O)C(OC3CC(C)(N)C(O)C(C)O3)c3ccc(c(Cl)c3)Oc3cc2cc(c3OC2OC(CO)C(O)C(O)C2OC2CC(C)(NCC3CCC(Cc4ccccc4)CC3)C(O)C(C)O2)Oc2ccc(cc2Cl)C1O` (stereo not drawn) [Compound 241], the MIC in test [1] is 1 µg/mL (≈ 0.562 µM); in [3] it was 1 µg/mL (≈ 0.562 µM); in test [4], no more than 0.06 µg/mL; in [5] it was no more than 0.06 µg/mL; in test [6] it was 1 µg/mL (≈ 0.562 µM); in test [7], 0.5 µg/mL (≈ 0.281 µM). Also, the MIC in test [8] was no more than 0.06 µg/mL; in [9], 0.5 µg/mL (≈ 0.281 µM); in test [18] it was 0.5 µg/mL (≈ 0.281 µM); in test [19], 1 µg/mL (≈ 0.562 µM); in [10], no more than 0.06 µg/mL; in [12], 1 µg/mL (≈ 0.562 µM). In addition, the MIC was no more than 0.06 µg/mL in test [13]; 0.5 µg/mL (≈ 0.281 µM) in test [14]; 1 µg/mL (≈ 0.562 µM) in test [15]; no more than 0.06 µg/mL in test [21]; no more than 0.06 µg/mL in test [16]; no more than 0.06 µg/mL in test [17]. The “mean geometric MIC, Vancomycin Sensitive Strains” value in [20] amounted to 0.048 µg/mL. Further, in [11], the “mean geometric MIC, Vancomycin Resistant Strains” value is 1.4 µg/mL.

What is called MIC is the lowest concentration that inhibits growth of the organism. Low readings indicate inhibition by little substance, high ones a need for much substance.
